This is an account of results in patent US20150073008A1, “Topical Application of Vinca Alkaloids for the Treatment of Actinic Keratosis” (Merz Pharma GmbH & Co. KGaA, priority 2013, published 2015).

Structures can show the parent of a compound that is named as a salt. Where two headings read alike, the source gives them in different places.

For series [1], the system named is SCC-111 cells. Nature of the series: cells. As to conditions: Homo sapiens, read-out: in vitro IC50-value (in SCC-111 cells).
Series [2] has as its system proliferating and non-proliferating cells. Put plainly: Comparative test of cell density as a function of time (normal and high cell density). Format: cell-based.
For series [3], the system named is SCC-111 cells. As to conditions: for DCF-value: after repeating the experiments several times.
Series [4] has as its system human skin (Leiden epidermal skin). Nature of the series: Methylthiazol Tetrazolium-Assay (MTT) skin irritation, in vitro human skin model. Type of series: cell-based. The following applies: doses of 100-times the in vitro IC50-values; irritant = metabolic activity of skin model reduced to ≦50%. The source says:
This leads to the option to apply the vinca-compositions not only to single affected skin lesions (“spots”) but also to larger areas of the skin, e.g. for “field treatment”, and often even >5% (or >10%) of the skin surface (of the individual).

The nature of series [5]: Dermal absorption study with human skin (Franz diffusion cells, 3H-API). The following applies: different concentrations and formulations (cream, liposomes, hydro-tops).
Procedure: The vinca alkaloids were tested in different concentrations and in different formulations (such as cream, liposomes and hydro-tops).
Skin Preparations: Female human abdominal skins from plastic surgery were used. The subcutaneous fatty tissue was removed from the skin and then frozen at −20° C. with aluminium foil packed for later tests. Before use, skin disks of 18 mm diameter were punched, cleaned with PBS (phosphate buffered saline, pH 7.4, 10 mM) and thaw with the stratum corneum (SC) side up open to the atmosphere and the dermal side bathed with PBS for 2 hrs.
The dermal side of the skin was exposed to the receptor fluid (PBS) and the SC remained in contact with the donor compartment left dry and opened to the atmosphere. The temperature of the water bath was maintained at 37±0.1° C. The receptor solution was continuously stirred at 700 rpm with a small bar magnet placed inside the cell. Ten μl of Hydro-Tops or liposomes or 10 mg of the cream formulation were applied onto the skin's surface and uniformly spread by pipettes or spatula. The spatula was weighted again after the application of the cream to determine the applied dose. This means an application dose of 1 μg API per square cm. Samples (0.7 ml) were taken from the receptor fluid at 3, 6, 12, 18 and 24 hrs after application. At each point, the receptor cell content was replaced by 0.7 ml of fresh PBS solution. Three replicates were used for the studies (same skin preparations)
Tape Stripping: The distribution of API in the stratum corneum was determined by the tape stripping technique. After 24 hours the skin was taken, stretched and mounted with pins on cork discs and covered with aluminium mask with a central hole of 8 mm in diameter. […]
Measurement of 3H-API: The samples (standards, strips and fluids) were mixed with 12 ml Rotiszint eco plus (scintillation cocktail purchased from Carl Roth) and carefully vortexed for at least 1 minute. […] The activity in each sample was determined in a scintillation counter (Tri-Carb 2910TR Liquid Scintillation Analyzer; Perkin Elmer) by a standardized protocol.
The next series can be described thus: Stability at pH 5.5. Type of series: physicochemical. On the procedure: Some topical formulations may have a reduced stability at a temperature of 37° C. and a pH-value of 7 or more, e.g. a pH-value of 7.4.
The nature of the next series: Solubility. The following applies: pH 6.5.
Where [6] appears, read: IC50 in 0% FBS divided by IC50 in 20% FBS, SCC-111 cells.
The mark [7] stands for this setting: read-out: in vitro IC50-value (in SCC-111 cells), SCC-111 cells, serum condition not stated.

Regarding `O=c1[nH]cc(F)c(=O)[nH]1` [Example 5-FU, 5-Fluorouracil], the IC50 in the series with SCC-111 cells [1] was found to be 960 nM. In addition, the “effect on number of cells at normal (proliferating) and high (non-proliferating) cell density” value in series [2] is on record as “cells were affected, independent of their proliferation-status”. In addition, in the series with SCC-111 cells [3] (setting [6]), the DCF-value stood at 0.73.
`CC[C@]1(O)C[C@H]2CN(CCc3c([nH]c4ccccc34)[C@@](C(=O)OC)(c3cc4c(cc3OC)N(C=O)[C@H]3[C@@](O)(C(=O)OC)[C@H](OC(C)=O)[C@]5(CC)C=CCN6CC[C@]43[C@@H]65)C2)C1` [Vincristine, Vincristine sulfate]: in series [4], the “skin irritation rating in MTT assay” value was “not rated as irritant”. Also, the “dermal absorption (in words)” value in series [5] was “good dermal absorption”. In addition, the IC50 with SCC-111 cells [1] was determined as 0.92 nM. This compound also displayed a solubility in water (pH 5.5) of 0.57 % by weight. In addition, in “Stability at pH 5.5” (buffer, 168 h, pH 5.5), the “stability (compound remaining)” value was 99.6%. For the same compound, the DCF-value in the series on SCC-111 cells [3] (setting [6]) is recorded as 5.86.
Take Vinblastine sulfate hydrate: the “skin irritation rating in MTT assay” value in series [4] is recorded as “not rated as irritant”. Further, the “stability (compound remaining)” value in the series “Stability at pH 5.5” (pH 5.5, test for 7 days, 5° C.) is 97%. The DCF-value in the series on SCC-111 cells [3] (setting [6]) was found to be 19.87. Besides, the concentration for half-maximal inhibition (IC50) with SCC-111 cells [3] (setting [7]) amounted to 0.87 nM. Moreover, the solubility in “Solubility” is given as 0.25%.
For `CCC1=C[C@@H]2CN(C1)Cc1c([nH]c3ccccc13)[C@@](C(=O)OC)(c1cc3c(cc1OC)N(C)[C@H]1[C@@](O)(C(=O)OC)[C@H](OC(C)=O)[C@]4(CC)C=CCN5CC[C@]31[C@@H]54)C2` [Vinorelbine], the “skin irritation rating in MTT assay” value in series [4] was “not rated as irritant”. Further, in series [5], the “dermal absorption (in words)” value was “good dermal absorption”. Further, the IC50 in the series with SCC-111 cells [1] was found to be 1.34 nM. For the setting “pH 6.5”, the solubility turned out to be 0.7%. The “stability (compound remaining)” value in the series “Stability at pH 5.5” (buffer, 168 h, pH 5.5) is recorded as 99.5%. The DCF-value in the series on SCC-111 cells [3] (setting [6]) came to 6.42.
`CC[C@]1(O)C[C@@H]2CN(CCc3c([nH]c4ccccc34)[C@@](C(=O)OC)(c3cc4c(cc3OC)N(C)[C@H]3[C@@](O)(C(N)=O)[C@H](O)[C@]5(CC)C=CCN6CC[C@]43[C@@H]65)C2)C1` [Vindesine, Vindesine sulfate hydrate]: in series [4], the “skin irritation rating in MTT assay” value was “not rated as irritant”. In series [5], the “dermal absorption (in words)” value is “good dermal absorption”. The “stability (compound remaining)” value in the series “Stability at pH 5.5” (buffer, 168 h, pH 5.5) is 98.8%. In the series on SCC-111 cells [3] (setting [6]), this compound registered a DCF-value of 11.43. Besides, the “DCF-value (differential cytotoxicity factor) from FIGS. 1 and 2” value in the series with SCC-111 cells [3] (IC50 in 0% FBS divided by IC50 in 20% FBS, single example experiment) is above 10. The IC50 with SCC-111 cells [3] (read-out: IC50-value, 0% FBS medium cultivated cells (FIG. 2), SCC-111, 0% FBS (low proliferation), DNA-content, 72 hours) stood at 3.5 nM; in the series on SCC-111 cells [3] (read-out: IC50-value, 20% FBS medium cultivated cells (FIG. 1), SCC-111, 20% FBS (high proliferation), DNA-content, 72 hours), 0.34 nM; in the series on SCC-111 cells [3] (setting [7]) it was 0.57 nM.
`COc1cccc2c1C(=O)c1c(O)c3c(c(O)c1C2=O)C[C@@](O)(C(=O)CO)C[C@@H]3O[C@H]1C[C@H](N)[C@@H](O)[C@H](C)O1` [Epirubicin, Epirubicin HCL] came in with a DCF-value with SCC-111 cells [3] (setting [6]) of 6.05.
`COc1cc([C@@H]2c3cc4c(cc3[C@@H](O[C@@H]3O[C@@H]5CO[C@@H](c6cccs6)O[C@H]5[C@H](O)[C@H]3O)[C@H]3COC(=O)[C@H]23)OCO4)cc(OC)c1O` [Teniposide] yielded a DCF-value in the series with SCC-111 cells [3] (setting [6]) of 5.76.

A word on the IC50: it is the concentration at which inhibition is half-maximal.
